From patent US8680132B2, “Spiro-oxindole MDM2 antagonists” (priority 2010, dated 2014)
Values joined by “and” are separate entries in the source; they are usually repeats but may differ in a detail not shown here. Equal values may be shown once.

Assays:
Ku812 = test: Anti-proliferative ATP assay; type: cell-based; settings: Homo sapiens, CML-BC, p53 WT/WT
MOLM13 = test: Anti-proliferative ATP assay; type: cell-based; settings: Homo sapiens, MOLM-13, AML, p53 WT/WT, FLT3-ITD
Method: The anti-proliferative IC50 was determined by ATP assay.

[1] = test system: SJSA-1 (osteosarcoma) tumors; test: In vivo efficacy, SJSA-1 xenograft model; design: species or system mice; settings: single 200 mg/kg dose (QD1 treatment) versus QD7 treatment; FIG. 22
Method: A cell sample was mixed 1:1 with Trypan Blue (GIBCO™, Invitrogen Corp.) and counted on a hemocytometer to determine the number of live/dead cells. Cells were washed once with 1×PBS (GIBCO™, Invitrogen Corp.) and resuspended in PBS. […] Cells were injected s.c. into the flank region of each mouse using a 27 gauge needle. The size of tumors growing in the mice was measured in two dimensions using calipers. Tumor volume (mm^3)=(A×B^2)/2 where A and B are the tumor length and width (in mm), respectively. During treatment, tumor volume and body weight was measured three times a week. After the treatment was stopped, tumor volume (FIGS. 17, 20, 22, and 23) and body weight (FIGS. 18 and 21) was measured at least once a week. Mice were kept for an additional 60 days for further observation of tumor growth and toxicity. […] Before treatment began, tumors were allowed to grow to 60-140 mm^3 in volume, at which point the blood vessel supplies to the tumor should have been established. […] The Control group received vehicle alone (10% PEG 400:3% Cremophor:87% PBS).

SJSA1 = test: Anti-proliferative ATP assay; type: cell-based; settings: Homo sapiens, SJSA-1, bone, p53 WT/WT, MDM2 amplified
RS4; 11 (p53 wt) = settings: read-out: RS4, Four day treatment
SR = test: Anti-proliferative ATP assay; type: cell-based; settings: Homo sapiens, lymphoma, p53 WT/WT
SJSA-1 (p53 wild-type) = test: Cell growth assay (WST-8); type: cell-based; settings: Homo sapiens, SJSA-1, 96 h, read-out: IC50 SJSA-1 (p53 wild-type), Four day treatment
HCT-116 (p53 wild-type) = test: Cell growth assay (WST-8); type: cell-based, human; settings: Homo sapiens, HCT-116, 96 h, read-out: IC50 HCT-116 (p53 wild-type), Four day treatment
Hs746T = test: Anti-proliferative ATP assay; type: cell-based; settings: Homo sapiens, gastric, Met amplified
U2OS = test: Anti-proliferative ATP assay; type: cell-based; settings: Homo sapiens, bone, p53 WT/WT
DoHH2 = test: Anti-proliferative ATP assay; type: cell-based; settings: Homo sapiens, DOHH-2, GCB-DLBCL, p53 WT/WT, BCL2 overexpression
CCF-STTG1 = test: Anti-proliferative ATP assay; type: cell-based; settings: Homo sapiens, CNS, p53 WT/WT, MDM2 amplified
SNU-5 = test: Anti-proliferative ATP assay; type: cell-based; settings: Homo sapiens, gastric, Met amplified
LY3 = test: Anti-proliferative ATP assay; type: cell-based; settings: ABC-DLBCL, p53 WT/WT
22RV1 = test: Anti-proliferative ATP assay; type: cell-based; settings: Homo sapiens, prostate, p53 WT/MUT
HCT116 = test: Anti-proliferative ATP assay; type: cell-based; settings: Homo sapiens, HCT-116, colon, p53 WT/WT
SNU-1 = test: Anti-proliferative ATP assay; type: cell-based; settings: Homo sapiens, SNU1, gastric, p53 WT/WT, KRAS mut
H929 = test: Anti-proliferative ATP assay; type: cell-based; settings: Homo sapiens, NCI-H929, MM, p53 WT/WT
LnCap = test: Anti-proliferative ATP assay; type: cell-based; settings: Homo sapiens, prostate, p53 WT/WT
Capan2 = test: Anti-proliferative ATP assay; type: cell-based; settings: Homo sapiens, Capan-2, pancreas, p53 —/—
LNCAP (p53 wild-type) = test: Cell growth assay (WST-8); type: cell-based, human; settings: Homo sapiens, LNCaP, 96 h, read-out: IC50 LNCAP (p53 wild-type), Four day treatment
Y79 = test: Anti-proliferative ATP assay; type: cell-based; settings: Homo sapiens, retinoblastome, p53 WT/WT, Rb mutated
[2] = test system: prostate cancer cell line 22Rv1; test: Growth inhibition assay (Celltiter-Glo), 22Rv1; type: cell-based; settings: Homo sapiens; 22Rv1; 96 h; 96-well format; read-out: IC50 growth inhibition
RKO = test: Anti-proliferative ATP assay; type: cell-based; settings: Homo sapiens, colon, p53 WT/WT
JAR = test: Anti-proliferative ATP assay; type: cell-based; settings: placenta, p53 WT/WT, MDM2 amplified
MCF7 = test: Anti-proliferative ATP assay; type: cell-based; settings: Homo sapiens, breast, p53 WT/WT
EHEB = test: Anti-proliferative ATP assay; type: cell-based; settings: CLL, p53 WT/WT
Rec1 = test: Anti-proliferative ATP assay; type: cell-based; settings: Homo sapiens, MCL, p53 WT/WT
MKN45 = test: Anti-proliferative ATP assay; type: cell-based; settings: Homo sapiens, MKN-45, gastric, p53 WT/WT, Met amplified
Ly10 = test: Anti-proliferative ATP assay; type: cell-based; settings: ABC-DLBCL, p53 WT/WT
Ly7 = test: Anti-proliferative ATP assay; type: cell-based; settings: GCB-DLBCL, p53 WT/MUT
PC-3 (deleted p53) = test: Cell growth assay (WST-8); type: cell-based; settings: 96 h, read-out: IC50 PC-3 (deleted p53), Four day treatment
MV4; 11 = test: Anti-proliferative ATP assay; type: cell-based; settings: Homo sapiens, AML, p53 WT/WT, FLT3-ITD
RS4; 11 = test: Anti-proliferative ATP assay; type: cell-based; settings: Homo sapiens, ALL, p53 WT/WT
H1299 = test: Anti-proliferative ATP assay; type: cell-based; settings: Homo sapiens, NCI-H1299, lung, p53 —/—

CC(C)(C)C[C@@H]1N[C@@H](C(=O)NC2CCC(O)CC2)[C@H](c2cccc(Cl)c2F)[C@]12C(=O)Nc1cc(Cl)ccc12 (some centres unmarked) [MI-77301 (free amine)]
IC50 (Ku812): > 10000 nM
IC50 (MOLM13): 14.7 nM
antitumor efficacy (tumor volume) [1]: comparable efficacy to a continuous dosing regimen
IC50 (SJSA1): 145 nM
IC50 (RS4; 11 (p53 wt)): 0.102 µM and 0.081 µM
IC50 (SR): 14.9 nM
IC50 (SJSA-1 (p53 wild-type)): 0.058 ± 0.023 µM
IC50 (HCT-116 (p53 wild-type)): 0.033 ± 0.01 µM
IC50 (Hs746T): 10000 nM
IC50 (U2OS): > 10000 nM
IC50 (DoHH2): 39.3 nM
IC50 (CCF-STTG1): 162 nM
IC50 (SNU-5): > 10000 nM
IC50 (LY3): 280 nM
IC50 (22RV1): 399 nM
IC50 (HCT116): 229 nM
IC50 (SNU-1): 77 nM
IC50 (H929): 114 nM
IC50 (LnCap): 50 nM
IC50 (Capan2): > 10000 nM
IC50 (LNCAP (p53 wild-type)): 0.054 ± 0.008 µM
IC50 (Y79): 430 nM
IC50 [2]: 0.1 to 0.5 µM
IC50 (RKO): 480 nM
IC50 (JAR): 169 nM
IC50 (MCF7): 201 nM
IC50 (EHEB): 70 nM
IC50 (Rec1): 738 nM
IC50 (MKN45): > 10000 nM
IC50 (Ly10): 90 nM
IC50 (Ly7): > 10000 nM
IC50 (PC-3 (deleted p53)): 8.45 ± 0.35 µM
IC50 (MV4; 11): 45.4 nM
IC50 (RS4; 11): 28 nM
IC50 (H1299): > 10000 nM
